Data from the NIST ThermoML archive (doi:10.1016/j.jct.2018.08.013).
Several values for one entry are separate records, joined by “and”; a condition that tells them apart may be missing. Identical values can stand only once. Numbers after ± are expanded uncertainties.

Assay: specific heat capacity at constant pressure; xn = mol fraction of the nth substance listed
Details: 100 kPa, Crystal of intercomponent compound 1, x2 = 0.477

[Se] [selenium] + [In]
Details | specific heat capacity
117.9 K, relaxation calorimetry | 215.3 ± 8.8 J/K/kg
117.98 K, relaxation calorimetry | 213.08 ± 8.7 J/K/kg
121.94 K, relaxation calorimetry | 217.67 ± 8.8 J/K/kg
121.97 K, relaxation calorimetry | 216.38 ± 8.8 J/K/kg
125.98 K, relaxation calorimetry | 218.34 ± 8.9 J/K/kg and 218.39 ± 8.9 J/K/kg
130 K, relaxation calorimetry | 220.35 ± 9 J/K/kg
130.01 K, relaxation calorimetry | 220.87 ± 9 J/K/kg
133.92 K, relaxation calorimetry | 223.14 ± 9.1 J/K/kg
134.04 K, relaxation calorimetry | 219.79 ± 8.9 J/K/kg
138.04 K, relaxation calorimetry | 223.76 ± 9.1 J/K/kg
138.07 K, relaxation calorimetry | 223.97 ± 9.1 J/K/kg
141.97 K, relaxation calorimetry | 225.82 ± 9.2 J/K/kg
142.1 K, relaxation calorimetry | 222.52 ± 9 J/K/kg
146.07 K, relaxation calorimetry | 227.01 ± 9.2 J/K/kg
146.14 K, relaxation calorimetry | 226.7 ± 9.2 J/K/kg
150.02 K, relaxation calorimetry | 228.71 ± 9.3 J/K/kg
150.14 K, relaxation calorimetry | 225.72 ± 9.2 J/K/kg
154.13 K, relaxation calorimetry | 230.11 ± 9.3 J/K/kg
154.16 K, relaxation calorimetry | 229.02 ± 9.3 J/K/kg
162.19 K, relaxation calorimetry | 232.33 ± 9.4 J/K/kg
162.21 K, relaxation calorimetry | 231.34 ± 9.4 J/K/kg
170.26 K, relaxation calorimetry | 233.51 ± 9.5 J/K/kg
170.28 K, relaxation calorimetry | 234.13 ± 9.5 J/K/kg
178.32 K, relaxation calorimetry | 235.16 ± 9.5 J/K/kg
178.34 K, relaxation calorimetry | 235.63 ± 9.5 J/K/kg
186.37 K, relaxation calorimetry | 236.76 ± 9.6 J/K/kg
186.4 K, relaxation calorimetry | 237.23 ± 9.7 J/K/kg
194.4 K, relaxation calorimetry | 238 ± 9.7 J/K/kg
194.45 K, relaxation calorimetry | 238.31 ± 9.7 J/K/kg
202.42 K, relaxation calorimetry | 239.96 ± 9.8 J/K/kg
202.5 K, relaxation calorimetry | 239.65 ± 9.8 J/K/kg
210.44 K, relaxation calorimetry | 241.2 ± 9.8 J/K/kg
210.53 K, relaxation calorimetry | 241.05 ± 9.8 J/K/kg
218.46 K, relaxation calorimetry | 241.51 ± 9.8 J/K/kg
218.55 K, relaxation calorimetry | 241.2 ± 9.8 J/K/kg
226.5 K, relaxation calorimetry | 242.85 ± 9.9 J/K/kg
226.59 K, relaxation calorimetry | 242.65 ± 9.9 J/K/kg
234.52 K, relaxation calorimetry | 243.63 ± 9.9 J/K/kg
234.63 K, relaxation calorimetry | 243.37 ± 9.9 J/K/kg
242.56 K, relaxation calorimetry | 244.4 ± 9.9 J/K/kg
242.67 K, relaxation calorimetry | 244.04 ± 9.9 J/K/kg
250.6 K, relaxation calorimetry | 245.28 ± 10 J/K/kg
250.71 K, relaxation calorimetry | 245.12 ± 10 J/K/kg
255.57 K, relaxation calorimetry | 245.59 ± 10 J/K/kg
255.58 K, relaxation calorimetry | 246.52 ± 10 J/K/kg
258.63 K, relaxation calorimetry | 245.95 ± 10 J/K/kg
258.74 K, relaxation calorimetry | 245.79 ± 10 J/K/kg
264.04 K, relaxation calorimetry | 247.24 ± 10 J/K/kg
264.08 K, relaxation calorimetry | 246.1 ± 10 J/K/kg
265.74 K, Extra sensitive DSC | 248.37 ± 9.6 J/K/kg
266.66 K, relaxation calorimetry | 246.62 ± 10 J/K/kg
266.77 K, relaxation calorimetry | 246.57 ± 10 J/K/kg
270 K, Extra sensitive DSC | 248.48 ± 9.6 J/K/kg
272.24 K, relaxation calorimetry | 248.48 ± 10 J/K/kg
272.34 K, relaxation calorimetry | 248.43 ± 10 J/K/kg
274.69 K, relaxation calorimetry | 247.7 ± 10 J/K/kg
274.81 K, relaxation calorimetry | 247.7 ± 10 J/K/kg
275 K, Extra sensitive DSC | 248.79 ± 9.7 J/K/kg
280 K, Extra sensitive DSC | 249.1 ± 9.7 J/K/kg
280.72 K, relaxation calorimetry | 249.15 ± 10 J/K/kg
280.84 K, relaxation calorimetry | 248.06 ± 10 J/K/kg
282.72 K, relaxation calorimetry | 248.48 ± 10 J/K/kg
282.83 K, relaxation calorimetry | 248.37 ± 10 J/K/kg
285 K, Extra sensitive DSC | 249.51 ± 9.7 J/K/kg
288.98 K, relaxation calorimetry | 249.72 ± 10 J/K/kg
289.06 K, relaxation calorimetry | 248.53 ± 10 J/K/kg
290 K, Extra sensitive DSC | 249.92 ± 9.7 J/K/kg
290.72 K, relaxation calorimetry | 248.79 ± 10 J/K/kg
290.85 K, relaxation calorimetry | 248.94 ± 10 J/K/kg
294.72 K, relaxation calorimetry | 248.58 ± 10 J/K/kg
294.84 K, relaxation calorimetry | 249.25 ± 10 J/K/kg
295 K, Extra sensitive DSC | 250.03 ± 9.7 J/K/kg
297.48 K, relaxation calorimetry | 249.25 ± 10 J/K/kg
297.56 K, relaxation calorimetry | 248.74 ± 10 J/K/kg
298.75 K, relaxation calorimetry | 248.74 ± 10 J/K/kg
298.86 K, relaxation calorimetry | 250.59 ± 10 J/K/kg
300 K, Extra sensitive DSC | 250.18 ± 9.7 J/K/kg
303.85 K, relaxation calorimetry | 252.19 ± 10 J/K/kg
303.86 K, relaxation calorimetry | 252.14 ± 10 J/K/kg
305 K, Extra sensitive DSC | 250.39 ± 9.7 J/K/kg
305.75 K, relaxation calorimetry | 251.52 ± 10 J/K/kg
305.8 K, relaxation calorimetry | 251.11 ± 10 J/K/kg
306.87 K, relaxation calorimetry | 252.97 ± 10 J/K/kg and 252.76 ± 10 J/K/kg
310 K, Extra sensitive DSC | 251.42 ± 9.8 J/K/kg
315 K, Extra sensitive DSC | 252.09 ± 9.8 J/K/kg
320 K, Extra sensitive DSC | 251.78 ± 9.8 J/K/kg
325 K, Extra sensitive DSC | 252.3 ± 9.8 J/K/kg
330 K, Extra sensitive DSC | 253.12 ± 9.8 J/K/kg
335 K, Extra sensitive DSC | 254.52 ± 9.9 J/K/kg
340 K, Extra sensitive DSC | 254.88 ± 9.9 J/K/kg
345 K, Extra sensitive DSC | 255.7 ± 9.9 J/K/kg
350 K, Extra sensitive DSC | 256.89 ± 10 J/K/kg
355 K, Extra sensitive DSC | 257.82 ± 10 J/K/kg
357.87 K, Extra sensitive DSC | 258.59 ± 10 J/K/kg
